In turn, `Cc1cc(-n2ccnc2)c2cccc(OCc3c(Cl)ccc(S(=O)(=O)N4CCC[C@H]4C(=O)NCCCN(C)C)c3Cl)c2n1` yielded a melting point of 80 °C.

The compound `CC1(C)c2cc(OS(C)(=O)=O)ccc2OC1OC(=O)c1ccccc1` (stereo not drawn) returned a melting point of 102 to 104 °C.

For the compound `O=C(O)c1ccc(C(=O)C=Cc2ccccc2)cc1`, the melting point lay in the range of 217 to 220 °C.

Turning to `CSC(=NCCSCc1[nH]cnc1C)NC#N`, the melting point was in the range of 148 to 150 °C.

Compound `Nc1ccc(S(=O)(=O)c2cc(-c3ccc4ccccc4c3)nc(N3CCCC3)c2)cc1` gave a melting point of 244 to 246 °C.

`COc1cc(C(=O)N(C)C)ccc1OCCCN1CCC(c2noc3cc(F)ccc23)CC1`: the melting point fell in the range of 126 to 127 °C.

The compound `COc1cc(C#N)cc(-c2ccc3c(c2)C(C)(C)OC(=S)N3)c1` displayed a melting point of 201 to 202 °C.

As for `C#Cc1cc(OC)c(OC)c(OC)c1`, the melting point lay in the range of 68 to 70 °C.

For `CC(C)CNS(=O)(=O)CCCCl`, the melting point is 68 to 69 °C.

`O=C(O)c1cc(=O)c(Sc2ccc(Cl)cc2)co1` returned a melting point of 165 to 167 °C.

Turning to `O=c1c2ccccc2[nH]n1C(c1ccccc1)c1ccccc1`, the melting point fell in the range of 179 to 181 °C.

`CN1C(=O)COc2cc3c(cc21)OCC31C(=O)Nc2ccccc21` (stereo not drawn) registered a melting point greater than 250 °C.

As to `C[Si](C)(C)c1ccc(Cl)c(Cl)c1C(=O)O`, the melting point fell in the range of 117 to 119 °C.

As to `CCCC(=O)Nc1ccc(-n2cc(CCCOc3c(CC(=O)O)cccc3OC)c(C(C)C)n2)nc1`, the melting point is 119 to 120 °C.

As for `Cc1cc(OC(=O)N(C)C)nc(C(Cl)(Cl)Cl)n1`, the melting point was in the range of 83.5 to 84.5 °C.

As to `CCN(CC)C(=O)OC12C(=O)c3ccccc3C1(O)Oc1cc(C(C)C)ccc12` (stereo not drawn), the melting point fell in the range of 101 to 104 °C.

In the case of `O=C1Nc2c(cc([N+](=O)[O-])cc2[N+](=O)[O-])C1c1ncnc2c1cnn2C1CCCC1` (stereo not drawn), the melting point lay within 242 to 246 °C.

In the case of `CCCCCCCCCCCCCCOc1ccccc1CBr`, the melting point lay in the range of 35 to 36 °C.

As for `CCCCCCCCCCCCCCCCOc1ccc(O)cc1`, the melting point fell in the range of 87 to 88 °C.

For `COCOCc1nc(N)c2ncc(O)nc2n1`, the melting point fell in the range of 210 to 212 °C.

On to `CN(C(c1ccc(F)cc1)c1ccc(Cl)cc1Cl)n1cncn1` (stereo not drawn), for which the melting point lay within 118 to 119 °C.

For `COc1cc([N+](=O)[O-])c(N)cc1OC(F)F`, the melting point is 144 to 145 °C.

Regarding `CCOC(=O)CC[C@H](NC(=O)c1ccc(C#Cc2cnc3nc(NC(=O)C(C)(C)C)nc(O)c3c2)cc1)C(=O)OCC`, the melting point was greater than 250 °C.

`CCOC(=O)c1cnccc1CCCOc1cccnc1Oc1cccc(Cl)c1` showed a melting point of 140 to 164 °C.

In turn, `CCCCCCCCC(SCCCCCC)C(=O)Nc1c([N+](=O)[O-])ccc2ncccc12` (stereo not drawn) gave a melting point of 89.9 °C.

Regarding `CC(C)c1cc(C=Cc2ccccc2O)on1`, the melting point was in the range of 129 to 133 °C.

`O=c1[nH]nc(-c2ccccc2SCc2ccccc2)o1`: the melting point was 169 to 172 °C.

`O=S(=O)(/C=C/c1ccc(Cl)cc1)CS(=O)(=O)/C=C/c1ccc(Cl)cc1` registered a melting point of 178 to 180 °C.

In the case of `CCCCCCCCCCCc1cc2ccc(C(=O)OCCCC)cc2[nH]1`, the melting point fell in the range of 73 to 76 °C.

`CCn1c(=O)c2c(nc(/C=C/c3ccc(OCOC)c(OC)c3)n2C)n(CC)c1=O`: the melting point was in the range of 179 to 181 °C.

The compound `O=C(O)Cc1c(C(=O)O)c2cc(Oc3ccc(C(F)(F)F)cc3)ccc2n1-c1ccccc1` showed a melting point of 255 to 257 °C.

As for `CCOC(=O)c1cn2c(C)nnc2cc1Nc1ccc(I)cc1F`, the melting point fell in the range of 201 to 204 °C.

For `COc1ccc(CCNc2nc(N)c(N)c(N)n2)cc1`, the melting point is 134 to 138 °C.

`CCCCn1c(=S)sc2c(=N)n(NC(N)=O)cnc21` yielded a melting point of 222 °C.

For the compound `CCOC(=O)C(C)Oc1ccc(Oc2nc3ccc(Cl)cc3s2)cc1` (stereo not drawn), the melting point was 49 °C.

With `CC1=CCC(=Nc2cc([N+](=O)[O-])ccc2O)S1`, the melting point was in the range of 202 to 204 °C.

Compound `Nc1nnc(C(F)(F)F)c2c1cc1cccc(CCCN3CC4CCC(CC4)C3)n12` showed a melting point of 252 to 253 °C.

As to `CC(C)(C)N1Cc2ccccc2P1(=O)c1ccccc1` (stereo not drawn), the melting point lay within 89 to 91 °C.

`COc1cc2c(cc1OC)N(C)C(=O)CN=C2c1cccnc1` came in with a melting point of 177 to 179 °C.

`CON(C)C(=O)Cc1ccc([N+](=O)[O-])cc1` had a melting point of 75 to 75.5 °C.

In the case of `COC(=O)C(=C\c1ccc(OC2CCCC2)c(OC)c1)/C(=C\c1ccccc1)C(N)=O`, the melting point was 158 to 159 °C.

As to `COc1ccc2cc(Nc3ccc(O)cc3)ccc2c1`, the melting point was in the range of 153 to 154 °C.

On to `COc1ccc(Cn2cnc3c2CC(C(=O)O)N(C(=O)C(c2ccccc2)c2ccccc2)C3)cc1C` (stereo not drawn), for which the melting point lay within 222 to 225 °C.

Compound `COc1ccc(-c2nn(C(C)c3oc4ccccc4c(=O)c3-c3cccc(F)c3)c3ncnc(N)c23)cc1OC` (stereo not drawn) yielded a melting point of 232 to 235 °C.

In turn, `O=c1c(Cl)coc2cc(OCCCCl)ccc12` displayed a melting point of 101 to 103 °C.

On to `CC(C)C[C@@H](C(=O)N1CCN(C(c2ccc(F)cc2)c2ccc(F)cc2)CC1)N(Cc1ccc(OC(C)(C)C)cc1)Cc1ccc(OC(C)(C)C)cc1`, for which the melting point fell in the range of 62 to 67 °C.

On to `COc1ccc(Cl)n2nc(S(=O)(=O)Nc3c(F)cccc3F)nc12`, for which the melting point was in the range of 190 to 191 °C.

As for `CC(C)(COc1ccc(CNC(=O)C2Cc3ccccc3N2S(=O)(=O)c2ccc(-c3cccc(C(F)(F)F)c3)cc2)cc1)C(=O)O` (stereo not drawn), the melting point is 95 to 105 °C.

Compound `CCCCc1nc2c(N)nc3ccc(OCC(=O)N4CCCCC4)cc3c2n1C` had a melting point of 222 to 223 °C.

For the compound `C=CCc1cc(C(=O)OC(C)C)ccc1O`, the melting point was 79 to 80 °C.

`OC[C@@H]1OC[C@H](n2c(NC3CC3)nc3cc(Cl)c(Cl)cc32)[C@@H](O)[C@H]1O` displayed a melting point of 164 °C.

`CC1(C)CCC(C)(C)c2cc(-c3ccc4cc(O)ccc4c3)ccc21` gave a melting point of 104 °C.

In turn, `CC(Cl)c1ccc(C(=O)c2cccs2)cc1` (stereo not drawn) returned a melting point of 60 °C.

For `O=c1[nH]c2cscc2c(=O)n1CCN1CCN(c2cccc(Cl)c2)CC1`, the melting point fell in the range of 207 to 208 °C.

Regarding `COC(C)Cn1c(C)nc2cnc3ccccc3c21` (stereo not drawn), the melting point lay in the range of 55 to 57 °C.

For the compound `Nc1ccc(C(=O)C=Cc2ccncc2)cc1`, the melting point amounted to 207 °C.

As to `CN1C[C@@H](C(=O)OCc2ccccc2)N(C(=O)OCc2ccccc2)C1=O`, the melting point fell in the range of 120 to 122 °C.

The compound `Cc1ccc([N+](=O)[O-])c(OC2CCOC2=O)c1` (stereo not drawn) had a melting point of 68 to 70 °C.

In the case of `O=C1CCC(N2Cc3c(OCc4ccc(CN5CCOc6ccccc65)cc4)cccc3C2=O)C(=O)N1` (stereo not drawn), the melting point lay within 145 to 147 °C.

`N[C@@H](Cc1cn(Cc2ccccc2)cn1)C(=O)O` registered a melting point of 234 to 238 °C.

`O=C(CCl)Nc1ccc2c(c1)C(=O)c1cc(NC(=O)CCl)ccc1C2=O` showed a melting point of 286 °C.

On to `CCc1nc2c(C)cc(C)nc2n1Cc1ccc(-c2ccccc2-c2nc(=O)o[nH]2)cc1`, for which the melting point fell in the range of 149 to 152 °C.

`CS(=O)(=O)c1ccc(-c2nc(C(F)(F)F)nc(Cl)c2-c2ccc(F)cc2)cc1` showed a melting point of 195 to 197 °C.

In turn, `O=[N+]([O-])c1ccc2c(c1)C(O)Cc1ccc(F)cc1S2` (stereo not drawn) showed a melting point of 149 to 151 °C.

`C=Cn1ccnc1C(O)(c1ccc(C(C)(C)C)cc1)c1ccc(C(C)(C)C)cc1` came in with a melting point of 169 to 170 °C.

In the case of `Cc1cc(O)c(S(=O)Cc2ccc(Cl)cc2)c(=O)o1` (stereo not drawn), the melting point is 150 to 151 °C.

The compound `Cn1ncc2c(C(F)F)cc(-c3ccc(N)c(C#N)c3)nc21` displayed a melting point of 251 °C.

Compound `CC(C)(C)C1=C(c2cc3cc(O)ccc3o2)OCC1(C)C` returned a melting point of 129 to 130 °C.

`Nc1cc(Cl)cc(N)c1[N+](=O)[O-]` had a melting point of 202 °C.

As for `CCC(=O)NNc1ccnc2c(NC(=O)c3c(Cl)cccc3Cl)cccc12`, the melting point was 246 to 248 °C.

Consider `COc1ccc(C(=O)Nc2cc(NC(=O)c3cccc(NS(C)(=O)=O)c3)ccc2C)cc1OC`, for which the melting point was greater than 300 °C.

`O=c1[nH]c(=Cc2ccc(OCc3ccccc3)cn2)c(=O)[nH]c1=Cc1ccccc1` registered a melting point of 223 to 225 °C.

With `Cn1c(Cl)c(C=O)c2ccc(Cl)cc21`, the melting point lay in the range of 166 to 168 °C.

In turn, `Cc1ccnc(C(O)c2cc(F)ccc2F)c1` (stereo not drawn) displayed a melting point of 105 to 106 °C.

In turn, `COc1cc(N)c(Cl)cc1C(=O)NCC1CCN(CCCCCNC(=O)c2ccc(C)cc2)CC1` showed a melting point of 142 to 146 °C.

`C[C@@H](S[C@H]1CO[C@H](/C=C/c2cccnc2)OC1)[C@](O)(Cn1cncn1)c1ccc(F)cc1F` returned a melting point of 118 to 125 °C.

The compound `COC(=O)C(Oc1ccc(Cl)cc1)c1ccc(S(=O)c2ccc(Cl)cc2)cc1` (stereo not drawn) had a melting point of 134 to 144 °C.

In turn, `CC(C)(C)OC(=O)N[C@H](Cc1ccc(CC(F)(F)C(F)(F)F)cc1)[C@@H](O)c1cccc(Cl)c1` (racemic) returned a melting point of 156 to 157 °C.

As for `CCOC(=O)C1=C(COCCNC=O)NC(C)=C(C(=O)OC)C1c1cccc(Cl)c1Cl` (stereo not drawn), the melting point is 178 to 181 °C.

Take `O=c1[nH]c2cc(C(F)(F)F)c(-n3ccnc3)cc2n2c(=S)[nH]nc12`: the melting point is greater than 300 °C.

`COc1cc(C2=NN(c3ccccc3)C(=O)C2)cc([N+](=O)[O-])c1OC` registered a melting point of 190 to 192 °C.

Turning to `CCOC(=O)[C@H](CC(C)C)NC(=O)[C@@H](NC(=O)c1ccccc1)C(C)C`, the melting point fell in the range of 159 to 160 °C.

In the case of `CNc1cc(NS(=O)(=O)c2ccc(N)cc2)cc(C)n1`, the melting point is 173 to 175 °C.

In the case of `COc1cnc(CSc2nc3cc(OC(F)F)ccc3[nH]2)c(C)c1OC`, the melting point is 100 to 102 °C.

`COc1cc(Nc2c(C#N)cnc3cc(-c4ccc(N5CCOCC5)cc4)ccc23)c(Cl)cc1Cl` registered a melting point of 162 to 164 °C.

With `CC#CCOc1ccc(S(=O)(=O)NCCC(=O)OC(C)(C)C)cc1`, the melting point was 63 to 65 °C.

`c1ccc2c(c1)CCN(CCSc1ccnc(CSc3nc4ccccc4[nH]3)c1)C2` registered a melting point of 125 to 127 °C.

For `CON=Cc1cnnc2ccccc12`, the melting point was 83 to 85 °C.

For orientation: melting point means the temperature, or range, at which the solid turns liquid.
